“Also recorded” adds a separate entry of the source.
Legend:
MDCK normal cells = test: Anchorage-dependent growth in normal adhesion plates, MDCK normal cells; type: cell-based, canine
From the text: (§1) The effect of OP12-462 on anchorage-independent growth was examined; normal cells can proliferate in an anchorage-dependent manner but cannot in an anchorage-independent manner, whereas cancer cells can both proliferate in the anchorage-independent manner and form tumors. In normal (adhesion) plates, cancer cells adhere to the surface of plates and proliferate in the anchorage-dependent manner, so the anchorage-independent growth ability of the cancer cells cannot be observed. In ultra-low attachment surface (ULAS) plates, the cancer cells cannot adhere to the surface nor proliferate in the anchorage-dependent manner but can proliferate in the anchorage-independent manner. By measuring the proliferation ability of cancer cells on the ULAS plates, we can determine the anchorage-independent growth ability of the cells. […] Next, the effect of OP12-462 on tumor growth was examined. COLO 205 cells were inoculated subcutaneously into the back of BALB/cSlc-nu/nu nude mice. The day when the tumor volume exceeded 250 mm^3 was set as day 0, and OP12-462 (50 mg/kg body weight) in 0.2 mL of PBS solution or vehicle (PBS) was administered once a day into the tail vein for 10 days from day 0 to day 9.

normal or cancer cells = test: Acute toxicity to cells in vitro; type: cell-based
From the text: HGS/C and oligopeptides constituting HGS/C, including OP12-462, might be new tumor growth inhibitors that suppress tumor growth by inhibiting the anchorage-independent growth ability of cancer cells rather than directly destroying cancer cells. […] HGS/C and the OP12-462 are novel inhibitors of TGF-β-SMAD and Wnt-β-catenin signal transduction. They not only have a novel tumor growth suppression effect but also have the potential to become novel medicines for diseases, including various fibrosis diseases, whose symptoms worsen owing to the enhancement of these signal transduction pathways. Potential drug targets of EMT in metastasis are now in development. HGS and HGS/C are an inducer and an inhibitor of EMT and tumorigenesis. Therefore, HGS and HGS/C could be good targets of EMT-blocking drugs for clinical application.

COLO205 cells = test: Oligopeptide tumor growth inhibition test, subcutaneous COLO205 tumors in nude mice; type: in vivo, nude mice (BALB/cSlc-nu/nu)
From the text: The effect of OP12-462 on anchorage-independent growth was examined; normal cells can proliferate in an anchorage-dependent manner but cannot in an anchorage-independent manner, whereas cancer cells can both proliferate in the anchorage-independent manner and form tumors. In normal (adhesion) plates, cancer cells adhere to the surface of plates and proliferate in the anchorage-dependent manner, so the anchorage-independent growth ability of the cancer cells cannot be observed. In ultra-low attachment surface (ULAS) plates, the cancer cells cannot adhere to the surface nor proliferate in the anchorage-dependent manner but can proliferate in the anchorage-independent manner. By measuring the proliferation ability of cancer cells on the ULAS plates, we can determine the anchorage-independent growth ability of the cells. […]
After a 2-week acclimation period, 8-week-old female C57BL/6 or nude mice were randomly divided into groups. […] Tumor formation was monitored for 4 or 5 weeks after the inoculation by measuring the width (W) and length (L) of the tumors with W < L. The tumor volume was calculated according to the formula (W2 × L × π/6).
The cells were resuspended at a cell density of 1 × 10^6 cells in 100 µL of PBS and were inoculated subcutaneously into the flank region of 8-week-old female nude mice. […] Tumor sizes were measured daily.

COLO 205 cells = test: In vitro anchorage-independent growth inhibition test, ULAS plate; type: cell-based, human; settings: 2 × 10^3 cells/well, ULAS 96-well plate, Opti-MEM 5% FBS, 7 days, 37 °C, Cell Counting Kit-8 A450 nm
From the text: The effect of OP12-462 on anchorage-independent growth was examined; normal cells can proliferate in an anchorage-dependent manner but cannot in an anchorage-independent manner, whereas cancer cells can both proliferate in the anchorage-independent manner and form tumors. In normal (adhesion) plates, cancer cells adhere to the surface of plates and proliferate in the anchorage-dependent manner, so the anchorage-independent growth ability of the cancer cells cannot be observed. In ultra-low attachment surface (ULAS) plates, the cancer cells cannot adhere to the surface nor proliferate in the anchorage-dependent manner but can proliferate in the anchorage-independent manner. By measuring the proliferation ability of cancer cells on the ULAS plates, we can determine the anchorage-independent growth ability of the cells. […] Next, the effect of OP12-462 on tumor growth was examined. COLO 205 cells were inoculated subcutaneously into the back of BALB/cSlc-nu/nu nude mice. […]
After 7 days, 0.1 mL of Cell Counting Kit-8 solution (5-fold PBS diluted solution) was added, and the absorbance A450 nm was immediately measured and set as the T0 blank value. After incubating at 37 °C for 2 h, the absorbance A450 nm was measured again and set as T2. The absorbance difference between T2 and T0 was defined as the anchorage-independent or anchorage-dependent growth activity value.

[1] = Body weight and acute toxicity in tumor-bearing nude mice given OP12-462; type: in vivo, nude mice (BALB/cSlc-nu/nu)
From the text: as §1
The cells were resuspended at a cell density of 1 × 10^6 cells in 100 µL of PBS and were inoculated subcutaneously into the flank region of 8-week-old female nude mice. The day when the tumor volume exceeded 250 mm^3 was set as Day 0, and oligopeptide OP12-462 (50 mg/kg body weight) was administered as a 0.2 mL PBS solution in the tail vein once daily for 10 days from Day 0 to Day 9. Tumor sizes were measured daily.

ERRLYYEGLQDK [OP12-462, oligopeptide of 12 amino acid residues (…) constituting the coiled-coil domain of HGS]
Anchorage-dependent growth of MDCK normal cells (MDCK normal cells): did not inhibit
Acute toxicity to normal or cancer cells in vitro (normal or cancer cells): no acute toxicity
Tumor growth (tumor volume) versus vehicle (COLO205 cells; 50 mg/kg body weight in 0.2 mL PBS, tail vein, once daily for 10 days (day 0 to day 9), day 0 = tumor volume exceeded 250 mm^3, nude mice, n = 5): statistically significant from the third day onwards; also recorded: significantly suppressed the growth of the tumor
Duration of tumor growth suppression after end of administration (COLO205 cells; 50 mg/kg tail vein once daily day 0 to day 9, nude mice with COLO205 tumors): for more than two weeks after the administration had ended
Anchorage-independent growth activity (COLO 205 cells): inhibited the anchorage-independent growth activity of COLO 205 cells (Figure 5b) in a concentration-dependent manner
Average body weight / weight loss ([1]; 50 mg/kg tail vein for 10 consecutive days): no change in the average body weight; also recorded: did not result in weight loss
Acute toxicity due to administration ([1]; 50 mg/kg tail vein once daily for 10 days): No acute toxicity
Changes in body weight of each mouse ([1]; ten days after administration, 50 mg/kg tail vein once daily for 10 days): −0.4% to +2

— article PMC11766344, “HGS Promotes Tumor Growth, Whereas the Coiled-Coil Domain and Its Oligopeptide of HGS Suppress It” (International Journal of Molecular Sciences, 2025)
